{"source": "patent US11890287B2", "about": "“Therapeutic compounds and compositions for treating social disorders and substance use disorders” (Kinoxis Therapeutics Pty Ltd, priority 2015, dated 2024)", "assay": "24-hour pharmacokinetic study, intravenous route", "format": "in vivo, male Sprague Dawley rats", "settings": "20 mg/kg IV; for Vd: read-out: Vz", "method": "A single intravenous 20 mg/kg (corresponding to ˜17.1 mg/kg expressed as the free base corrected for purity) bolus dose of SOC-1 test item formulated in Hartman's solution was administered to three adult male Sprague Dawley rats. A total of 10 blood samples were collected from each rat at time points ranging from pre-dose to 24 hours post-dose. The blood samples were subsequently processed to plasma and analysed for plasma concentrations of SOC-1 using a screening LC-MS/MS method (assay range=50-5000 ng/mL). Pharmacokinetic parameters were estimated from the plasma concentration versus time data by non-compartmental methods using Phoenix 64 WinNonlin® software.\nPrior to treatments the rats were subject to surgery to cannulate the jugular vein (for dose administration, IV) and femoral artery (for blood sample collection, IA) with exteriorisation of the cannulas per test facility SOPs. Following recovery from surgery the rats were transferred to a Culex system for dose administration and blood sampling (with both lines tended per test facility SOPs).\nThe intravenous treatments were administered via the jugular cannula with a dosing volume of 4.0 mL/kg on the day following surgery. The treatments were followed by ˜200 μL vehicle to ensure a full dose was delivered to the animals.\nBlood samples (˜250 μl) were collected in lithium heparin tubes from the IA cannula at the following time points: pre-dose, 2, 5, 10, 30, 60 minutes, 2, 4, 8 and 24 hours post-dose\nBlood samples were kept on ice immediately after collection to minimize degradation and centrifuged as soon as possible at approximately 4000×rcf for 10 min. Pre-dose samples were centrifuged separately prior to dosing. The plasma was then transferred to polypropylene tubes and stored frozen at −80° C.\nPlasma concentrations of SOC-1 were determined using a screening LC-MS/MS method with a following liquid/liquid extraction. Briefly, 50 μL aliquots of the test samples and calibration standards were mixed with 1 mL of hexane:dichloromethane (1:1) for 5 minutes following the addition of 10 μl of internal standard, then centrifuged and the organic phase decanted and dried under nitrogen. The samples were then reconstituted with 0.5 mL of 0.1% formic acid in 30% methanol in deionised water and 0.2 mL transferred to a 96 well plate. A 5 μL aliquot of this sample was then analysed using an ABSciex API 4000 MS/MS coupled to a Shimadzu Prominence HPLC. The HPLC gradients included 0.1% formic acid in deionised water (Mobile Phase A) and 0.1% formic acid in methanol (Mobile Phase B). The LC-MS/MS instrument settings are summarised in Appendix 2. The samples were analysed with calibrated samples (50 to 5000 ng/mL) and concentration data determined by back calculation from the standard curve.\nGroup mean±standard error values for plasma concentration versus time values were determined using Phoenix 64 WinNonlin software. The following pharmacokinetic parameters were also calculated by non-compartmental methods, using Phoenix 64 WinNonlin software: • Rsq—Coefficient of association for the terminal elimination phase (R2). • Lambda—Terminal elimination rate constant associated with the terminal (log-linear) portion of the curve (1/h). • T1/2—Terminal elimination half-life (h) • C0—Initial concentration at time 0 min (ng/mL) determined by back-extrapolating from the first two measured concentration values. • Tmax—Time to maximum plasma concentration following extravascular administration. • Cmax—Maximum plasma concentration following extravascular administration • AUClast—Area under the curve from the time of dosing (Dosing time, time 0 min) to the last measurable concentration (ng·h/mL). • AUCinf—AUC from Dosing time extrapolated to infinity, based on the last observed concentration (obs). (ng·h/mL). • AUC % Extrap—Percentage of AUCinf due to extrapolation from time of last measurable concentration to infinity. • Vz—Volume of distribution (L/kg). • Cl—Total body clearance (L/h/kg). […]", "key": {"[1]": {"settings": "male, Sprague Dawley, rat, in vivo, Mean, N 3"}, "[2]": {"settings": "male, Sprague Dawley, rat, plasma, iv, 20 mg/kg, individual rats"}}, "note": "“And” between values parts separate entries of the source, which are not always exact repeats. Equal values may be shown once. Read-outs that look alike come from different tables or passages of the source.", "data": [{"smiles": "Cl.Cn1ncc2c1Nc1ccccc1NC2", "note": "[SOC-1]", "values": [{"measurement": "tolerability, morbidity or mortality", "result": "tolerated and there were no findings of morbidity or mortality"}, {"measurement": "Plasma SOC-1", "setting": "2 minutes post-dose, individual rats #1-#3", "result": "12600 ng/mL and 16500 ng/mL"}, {"measurement": "Plasma SOC-1", "setting": "5 minutes post-dose, individual rats #1-#3", "result": "13100 ng/mL and 12200 ng/mL"}, {"measurement": "Plasma SOC-1", "setting": "10 minutes post-dose, individual rats #1-#3", "result": "10900 ng/mL and 11700 ng/mL"}, {"measurement": "Plasma SOC-1", "setting": "30 minutes post-dose, individual rats #1-#3", "result": "8790 ng/mL and 8120 ng/mL"}, {"measurement": "Plasma SOC-1", "setting": "1 hour (60 minutes) post-dose, individual rats #1-#3", "result": "6480 ng/mL and 6310 ng/mL"}, {"measurement": "Plasma SOC-1", "setting": "2 hours post-dose, individual rats #1-#3", "result": "3610 ng/mL and 2980 ng/mL"}, {"measurement": "Plasma SOC-1", "setting": "4 hours post-dose, individual rats #1-#3", "result": "115 ng/mL and 286 ng/mL and 97.3 ng/mL"}, {"measurement": "Plasma SOC-1", "setting": "8 hours post-dose, individual rats #1-#3", "result": "BLOQ^a) (below lower limit of quantitation of 50 ng/mL)"}, {"measurement": "Plasma SOC-1", "setting": "24 hours post-dose, individual rats #1-#3", "result": "BLOQ^a) (below lower limit of quantitation of 50 ng/mL)"}, {"measurement": "AUC % Extrap", "setting": "Mean, N 3", "result": 0.803, "unit": "%"}, {"measurement": "Lambda", "setting": "Mean, N 3", "result": 1.28, "unit": "h⁻¹"}, {"measurement": "AUC % Extrap", "setting": "individual rats", "result": "0.559% and 1.45% and 0.398%"}, {"measurement": "AUCinf", "setting": "individual rats", "result": "18400 ng·h/mL and 17000 ng·h/mL"}, {"measurement": "AUClast", "setting": "individual rats", "result": "18100 ng·h/mL and 17000 ng·h/mL"}, {"measurement": "C0", "setting": "individual rats", "result": "12600 ng/mL and 20100 ng/mL"}, {"measurement": "Cl", "setting": "individual rats", "result": "0.931 L/h/kg and 1.00 L/h/kg"}, {"measurement": "Lambda", "setting": "individual rats", "result": "1.33 h⁻¹ and 1.07 h⁻¹ and 1.44 h⁻¹"}, {"measurement": "T1/2", "setting": "individual rats", "result": "38.8 min and 29 min"}, {"measurement": "Vz", "setting": "individual rats", "result": "0.868 L/kg and 0.699 L/kg"}, {"measurement": "AUC(0-inf)", "setting": "[1]", "result": 17000, "unit": "ng·h/mL"}, {"measurement": "clearance", "setting": "[1]", "result": 16.8, "unit": "mL/min/kg"}, {"measurement": "half-life", "setting": "[1]", "result": 33, "unit": "min"}, {"measurement": "C0", "setting": "male, Sprague Dawley, rat, in vivo, Mean, N 3, read-out: C0", "result": 18200, "unit": "ng/mL"}, {"measurement": "Vd", "setting": "[1]", "result": 0.799, "unit": "L/kg"}, {"measurement": "concentration at 2 min", "setting": "male, Sprague Dawley, rat, plasma, intravenous, 20 mg/kg, 2 minutes post-dose, individual rats #1-#3, read-out: Plasma SOC-1", "result": 17200, "unit": "ng/mL"}, {"measurement": "concentration at 5 min", "setting": "male, Sprague Dawley, rat, plasma, intravenous, 20 mg/kg, 5 minutes post-dose, individual rats #1-#3, read-out: Plasma SOC-1", "result": 11900, "unit": "ng/mL"}, {"measurement": "concentration at 10 min", "setting": "male, Sprague Dawley, rat, plasma, intravenous, 20 mg/kg, 10 minutes post-dose, individual rats #1-#3, read-out: Plasma SOC-1", "result": 12800, "unit": "ng/mL"}, {"measurement": "concentration at 30 min", "setting": "male, Sprague Dawley, rat, plasma, intravenous, 20 mg/kg, 30 minutes post-dose, individual rats #1-#3, read-out: Plasma SOC-1", "result": 7120, "unit": "ng/mL"}, {"measurement": "concentration at 1 h", "setting": "male, Sprague Dawley, rat, plasma, intravenous, 20 mg/kg, 1 hour (60 minutes) post-dose, individual rats #1-#3, read-out: Plasma SOC-1", "result": 5720, "unit": "ng/mL"}, {"measurement": "concentration at 2 h", "setting": "male, Sprague Dawley, rat, plasma, intravenous, 20 mg/kg, 2 hours post-dose, individual rats #1-#3, read-out: Plasma SOC-1", "result": 2310, "unit": "ng/mL"}, {"measurement": "AUC(0-t)", "setting": "male, Sprague Dawley, rat, plasma, iv, 20 mg/kg, Mean, N 3", "result": 16800, "unit": "ng·h/mL"}, {"measurement": "AUC(0-inf)", "setting": "[2]", "result": 15500, "unit": "ng·h/mL"}, {"measurement": "AUC(0-t)", "setting": "[2]", "result": 15400, "unit": "ng·h/mL"}, {"measurement": "clearance", "setting": "[2]", "result": 18.5, "unit": "mL/min/kg"}, {"measurement": "half-life", "setting": "[2]", "result": 31.3, "unit": "min"}, {"measurement": "C0", "setting": "male, Sprague Dawley, rat, plasma, iv, 20 mg/kg, individual rats, read-out: C0", "result": 21900, "unit": "ng/mL"}, {"measurement": "Vd", "setting": "[2]", "result": 0.831, "unit": "L/kg"}]}]}
